Assay results as given in US20100144708A1, “HETEROCYCLIC COMPOUNDS CONTAINING NITROGEN ATOMS OR PHARMACEUTICALLY ACCEPTABLE SALTS THEREOF, PROCESS FOR THE PREPARATION THEREOF AND PHARMACEUTICAL COMPOSITION COMPRISING THE SAME FOR TREATMENT OF CANCER” (Korea Research Instititute of Bioscience and Biotechnology, priority 2006, published 2010).

What was measured:
PC-3 (prostate cancer) = experiment: Test for inhibition of tumor cell growth (SRB), PC-3; format: cell-based, Human; conditions: Homo sapiens; 48 hours, SRB staining; read-out: GI50 PC-3 (prostate ancer)
Method in brief: (§1)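 Cells seeded in RPMI 1640 with 5% FBS, exposed to compound (final […], units as printed) for 48 hours at 37° C with 5% CO2, including a time-zero plate. TCA-fixed, SRB-stained, absorbance at 540 nm as percent of control; GI50 is the 50% growth-inhibition concentration.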

[1] = system: MBA-MB-231 (breast cancer); experiment: Test for inhibition of tumor cell growth (SRB), MBA-MB-231; format: cell-based, Human; conditions: Homo sapiens; 48 hours, SRB staining
Method in brief: as §1

ACHN (kidney cancer) = experiment: Test for inhibition of tumor cell growth (SRB), ACHN; format: cell-based, Human; conditions: Homo sapiens, ACHN; 48 hours, SRB staining
Method in brief: as §1

NUGC-3 (gastric cancer) = experiment: Test for inhibition of tumor cell growth (SRB), NUGC-3; format: cell-based, Human; conditions: Homo sapiens, NUGC-3; 48 hours, SRB staining
Method in brief: as §1

[2] = system: human prostate cancer cell line PC-3; experiment: Test for tumor growth inhibition in animal model (PC-3 xenograft); format: in vivo; conditions: 30 mg/kg daily, 20 times, intraperitoneal; final day (day 21); vs vehicle-control; p<0.001
Experimental: Female S.P.F BALB/c nude mice (7-week-old) were grafted with 3×10^7 cells/□ of human prostate cancer cell line PC-3, and then intraperitoneally administered with the compound prepared in Example 55 at a daily dosage of 30 mg/kg 20 times. A positive control group was intraperitoneally administered with adriamycin at a daily dosage of 2 mg/kg 10 times once every two days.
The changes in their body weight are shown in FIG. 1, the changes in tumor size are shown in FIG. 2, and the tumor weights measured on the final day (day 21) are shown in FIG. 3.

[3] = system: human prostate cancer cell line, PC-3 cells; experiment: Western blot analysis in PC-3 cells; format: cell-based; conditions: 0, 2, and 5 uM, 24 hours
Experimental: 4×10^6 of human prostate cancer cell line, PC-3 cells were cultured in 100 mm diameter-culture dishes with RPMI media containing 5% FBS for one day, and then treated with the compound prepared in Example 55 at concentrations of 0, 2, and 5 uM for 24 hours, respectively. Then, the cells were carefully washed with 10[…] of PBS twice, and 1 ml of PBS containing protease inhibitor cocktail (Roche, complete™-mini) (1 tablet/50[…] PBS) was added to the each dish. The cells were collected and sonicated. The sonicated cells were centrifuged using a microcentrifuge at 12000 rpm for 20 minutes, and the supernatant was collected. Then, the amount of protein was determined using a Bradford dye reagent (Bio-Rad), and after running 20[…] of the protein on an SDS-PAGE gel, the protein band was transferred to a nitrocellulose membrane (Bio-Rad). Subsequently, the amounts of each protein were analyzed using primary antibodies and secondary antibodies-HRP (horseradish peroxidase) that are specific to each protein to be tested (Amersham or Bio-Rad), and an ECL chemiluminescence reagent (Amersham).

[4] = system: human prostate cancer cell line, PC-3 cells; experiment: Flow cytometric analysis of apoptosis (PI staining) with NAC; format: cell-based; conditions: 5 uM NAC for 3 hours, then compound 5 uM for 24 hours; compared to cells treated with only the compound
Experimental: 5×10^5 of human prostate cancer cell line, PC-3 cells were cultured in 60 mm diameter-culture dishes with RPMI 1640 media containing 5% FBS in an incubator supplied with 5% CO2 at 37° C. for one day, and then treated with 5 uM NAC (N-acetylcysteine, Sigma) for 3 hours. Then, the cells were treated with the compound prepared in Example 55 at concentrations of 5 uM, cultured for 24 hours. Subsequently, the cells were treated with 0.1% trypsin and detached. The detached cells were transferred to a 15[…] conical tube, and centrifuged at 200×g for 5 minutes to precipitate the cells. Then, the supernatant was removed. 0.5[…] of PBS solution containing 0.1 mg/□ RNase A was added thereto, so as to resuspend the cells. The cells were treated with a PI (propidium iodide) DNA staining solution in a concentration of 50[…]/□ to stain the DNA in the cells for 30 or more minutes. The PI-stained cells were e xcited using a flow cytometer (Becton Dickinson) at 488 nm by a laser beam, and an emission wavelength of 588 nm was represented by a histogram, and then quantitatively analyzed to determine the amount of DNA in the cells.

SMILES: CCCCCCCCCCCC(=O)N1CC[N+](CC)(Cc2cccc(C)c2)CC1 [Example 55, 4-dodecanoyl-1-ethyl-1-(3-methylbenzyl)piperazin-1-ium bromide]
- GI50 (PC-3 (prostate cancer)): 0.41 mg/L
- GI50 [1]: 4.37 mg/L
- GI50 (ACHN (kidney cancer)): 3.84 mg/L
- GI50 (NUGC-3 (gastric cancer)): 0.9 mg/L
- effect of inhibiting tumor growth [2]: 84.0%
- reduction of tumor weight [2]: 79.5%
- amount of Bcl2 [3]: down-regulated
- amount of RhoB [3]: increased
- amount of c-abl [3]: increased
- amount of p53 [3]: sharply increased
- amount of phosphorylated p53 [3]: sharply increased
- degree of apoptosis [4]: greatly decreased
